Results reported in publication PMC10222858 (Marine Drugs, 2023).
Where a SMILES comes first, the peptide text is derived from it.

Legend:
rα3β4 nAChRs = rα3β4 nAChRs (Rattus norvegicus, UniProt P04757+P12392); experiment: cell-based; assay type: cell-based
rα6/α3β4 nAChRs = rα6/α3β4 nAChRs (Rattus norvegicus, UniProt P04757+P12392+P43143); experiment: cell-based; assay type: cell-based
rα6/α3β4 nAChRs, sequence (P04757 whole entry, looked up): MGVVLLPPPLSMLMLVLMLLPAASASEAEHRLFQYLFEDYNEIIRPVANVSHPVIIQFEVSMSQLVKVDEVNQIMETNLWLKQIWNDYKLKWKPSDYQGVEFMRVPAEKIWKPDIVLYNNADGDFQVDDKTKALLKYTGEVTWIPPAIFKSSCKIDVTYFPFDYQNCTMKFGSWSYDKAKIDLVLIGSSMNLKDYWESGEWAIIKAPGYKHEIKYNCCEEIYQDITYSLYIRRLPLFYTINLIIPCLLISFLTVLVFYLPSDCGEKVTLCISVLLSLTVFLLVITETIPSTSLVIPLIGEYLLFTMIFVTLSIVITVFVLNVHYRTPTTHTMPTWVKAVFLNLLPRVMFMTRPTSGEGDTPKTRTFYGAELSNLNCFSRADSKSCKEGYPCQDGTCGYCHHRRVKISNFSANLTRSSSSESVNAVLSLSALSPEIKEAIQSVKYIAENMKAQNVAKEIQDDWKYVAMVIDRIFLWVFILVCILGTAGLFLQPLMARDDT
rα6/α3β4 nAChRs, sequence (P12392 whole entry, looked up): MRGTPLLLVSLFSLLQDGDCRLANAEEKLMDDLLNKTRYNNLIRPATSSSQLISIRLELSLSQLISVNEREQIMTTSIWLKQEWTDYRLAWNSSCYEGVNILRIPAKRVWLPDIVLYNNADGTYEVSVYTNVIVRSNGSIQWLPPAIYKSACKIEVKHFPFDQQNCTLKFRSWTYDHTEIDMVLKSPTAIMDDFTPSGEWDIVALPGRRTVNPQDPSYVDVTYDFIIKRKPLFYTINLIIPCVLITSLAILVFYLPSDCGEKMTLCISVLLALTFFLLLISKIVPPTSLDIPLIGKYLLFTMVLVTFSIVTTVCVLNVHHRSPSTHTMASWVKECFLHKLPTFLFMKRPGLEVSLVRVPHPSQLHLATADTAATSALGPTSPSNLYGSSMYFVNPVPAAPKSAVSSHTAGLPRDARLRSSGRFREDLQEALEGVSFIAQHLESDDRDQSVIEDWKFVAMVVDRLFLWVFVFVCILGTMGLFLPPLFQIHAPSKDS
rα6/α3β4 nAChRs, sequence (P43143 whole entry, looked up): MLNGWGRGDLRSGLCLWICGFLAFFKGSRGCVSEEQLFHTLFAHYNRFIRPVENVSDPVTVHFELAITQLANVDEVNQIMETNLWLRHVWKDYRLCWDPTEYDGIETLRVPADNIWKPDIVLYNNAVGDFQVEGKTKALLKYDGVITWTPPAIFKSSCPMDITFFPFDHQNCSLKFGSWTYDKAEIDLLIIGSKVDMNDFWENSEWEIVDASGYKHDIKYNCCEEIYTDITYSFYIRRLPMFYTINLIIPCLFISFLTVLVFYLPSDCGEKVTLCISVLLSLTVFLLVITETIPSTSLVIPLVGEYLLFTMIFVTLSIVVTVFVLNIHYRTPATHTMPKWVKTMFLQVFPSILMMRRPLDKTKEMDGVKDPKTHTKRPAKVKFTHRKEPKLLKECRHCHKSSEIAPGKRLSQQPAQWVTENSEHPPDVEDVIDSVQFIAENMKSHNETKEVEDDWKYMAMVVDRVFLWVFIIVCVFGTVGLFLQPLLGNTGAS

rα3β4 nAChRs, sequence (P04757 26-499 limits assumed): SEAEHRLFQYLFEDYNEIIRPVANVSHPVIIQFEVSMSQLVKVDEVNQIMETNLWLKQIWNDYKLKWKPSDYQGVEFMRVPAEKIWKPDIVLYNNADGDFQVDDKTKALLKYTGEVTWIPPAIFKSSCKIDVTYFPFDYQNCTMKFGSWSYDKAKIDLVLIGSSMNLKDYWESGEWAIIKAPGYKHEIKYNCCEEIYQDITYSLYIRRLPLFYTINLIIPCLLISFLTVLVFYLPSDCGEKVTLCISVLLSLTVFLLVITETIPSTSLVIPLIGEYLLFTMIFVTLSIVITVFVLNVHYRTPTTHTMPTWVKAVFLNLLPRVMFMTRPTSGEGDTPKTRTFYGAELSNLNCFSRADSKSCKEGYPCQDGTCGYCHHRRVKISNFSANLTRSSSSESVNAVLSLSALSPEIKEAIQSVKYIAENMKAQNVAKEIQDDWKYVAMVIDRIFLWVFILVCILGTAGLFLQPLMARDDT
rα3β4 nAChRs, sequence (P12392 21-495 limits assumed): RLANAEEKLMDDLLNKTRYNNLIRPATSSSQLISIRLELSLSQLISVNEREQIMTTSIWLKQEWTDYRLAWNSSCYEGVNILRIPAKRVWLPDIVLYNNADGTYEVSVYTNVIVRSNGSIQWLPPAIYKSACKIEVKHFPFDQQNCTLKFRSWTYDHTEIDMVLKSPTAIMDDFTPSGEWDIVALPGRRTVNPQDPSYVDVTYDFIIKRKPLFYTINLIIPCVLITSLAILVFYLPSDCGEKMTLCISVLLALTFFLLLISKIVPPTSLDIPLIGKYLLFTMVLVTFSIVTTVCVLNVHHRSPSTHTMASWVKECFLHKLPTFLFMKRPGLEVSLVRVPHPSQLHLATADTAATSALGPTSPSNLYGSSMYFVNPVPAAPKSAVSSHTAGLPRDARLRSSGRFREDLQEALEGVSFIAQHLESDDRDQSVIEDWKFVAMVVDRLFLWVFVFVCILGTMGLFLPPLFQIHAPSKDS

SMILES	IC50 (rα3β4 nAChRs)	IC50 (rα6/α3β4 nAChRs)	blocking percentage of rα3β4 nAChRs (rα3β4 nAChRs)	inhibition of rα6/α3β4 nAChRs in words (rα6/α3β4 nAChRs)
CC[C@H](C)[C@@H]1NC(=O)[C@@H]2CCCN2C(=O)[C@H](C)NC(=O)[C@H](CO)NC(=O)[C@H](CCSC)NC(=O)[C@H](C)NC(=O)[C@H](CO)NC(=O)[C@@H]2CSSC[C@H](NC(=O)CN)C(=O)N[C@@H](CSSC[C@@H](C(N)=O)NC1=O)C(=O)N[C@@H](CO)C(=O)N[C@@H](Cc1c[nH]cn1)C(=O)N1CCC[C@H]1C(=O)N[C@@H](C(C)C)C(=O)N2 [[+13A]TxID] (HELM PEPTIDE1{G.C.C.S.H.P.V.C.S.A.M.S.A.P.I.C.[am]}$PEPTIDE1,PEPTIDE1,2:R3-8:R3|PEPTIDE1,PEPTIDE1,3:R3-16:R3$$$V2.0)	9.9 nM	64 nM	–	–
CC[C@H](C)[C@@H]1NC(=O)[C@@H]2CCCN2C(=O)[C@H](CO)NC(=O)[C@H](C)NC(=O)[C@H](CCSC)NC(=O)[C@H](C)NC(=O)[C@H](CO)NC(=O)[C@@H]2CSSC[C@H](NC(=O)CN)C(=O)N[C@@H](CSSC[C@@H](C(N)=O)NC1=O)C(=O)N[C@@H](CO)C(=O)N[C@@H](Cc1c[nH]cn1)C(=O)N1CCC[C@H]1C(=O)N[C@@H](C(C)C)C(=O)N2 [[+12A]TxID] (HELM PEPTIDE1{G.C.C.S.H.P.V.C.S.A.M.A.S.P.I.C.[am]}$PEPTIDE1,PEPTIDE1,2:R3-8:R3|PEPTIDE1,PEPTIDE1,3:R3-16:R3$$$V2.0)	49 nM	34 nM	–	–
CC[C@H](C)[C@@H]1NC(=O)[C@H](C)NC(=O)[C@@H]2CCCN2C(=O)[C@H](CO)NC(=O)[C@H](CCSC)NC(=O)[C@H](C)NC(=O)[C@H](CO)NC(=O)[C@@H]2CSSC[C@H](NC(=O)CN)C(=O)N[C@@H](CSSC[C@@H](C(N)=O)NC1=O)C(=O)N[C@@H](CO)C(=O)N[C@@H](Cc1c[nH]cn1)C(=O)N1CCC[C@H]1C(=O)N[C@@H](C(C)C)C(=O)N2 [[+14A]TxID] (HELM PEPTIDE1{G.C.C.S.H.P.V.C.S.A.M.S.P.A.I.C.[am]}$PEPTIDE1,PEPTIDE1,2:R3-8:R3|PEPTIDE1,PEPTIDE1,3:R3-16:R3$$$V2.0)	37 nM	368 nM	–	–
CC[C@H](C)[C@@H]1NC(=O)[C@@H]2CCCN2C(=O)[C@H](CO)NC(=O)[C@H](CCSC)NC(=O)[C@H](C)NC(=O)[C@H](C)NC(=O)[C@H](CO)NC(=O)[C@@H]2CSSC[C@H](NC(=O)CN)C(=O)N[C@@H](CSSC[C@@H](C(N)=O)NC1=O)C(=O)N[C@@H](CO)C(=O)N[C@@H](Cc1c[nH]cn1)C(=O)N1CCC[C@H]1C(=O)N[C@@H](C(C)C)C(=O)N2 [[+10A]TxID] (HELM PEPTIDE1{G.C.C.S.H.P.V.C.S.A.A.M.S.P.I.C.[am]}$PEPTIDE1,PEPTIDE1,2:R3-8:R3|PEPTIDE1,PEPTIDE1,3:R3-16:R3$$$V2.0)	> 10000 nM	1130 nM	–	–
CC[C@H](C)[C@@H]1NC(=O)[C@@H]2CCCN2C(=O)[C@H](CO)NC(=O)[C@H](CCSC)NC(=O)[C@H](C)NC(=O)[C@H](CO)NC(=O)[C@@H]2CSSC[C@H](NC(=O)CN)C(=O)N[C@@H](CSSC[C@@H](C(N)=O)NC(=O)[C@H](C)NC1=O)C(=O)N[C@@H](CO)C(=O)N[C@@H](Cc1c[nH]cn1)C(=O)N1CCC[C@H]1C(=O)N[C@@H](C(C)C)C(=O)N2 [[+15A]TxID] (HELM PEPTIDE1{G.C.C.S.H.P.V.C.S.A.M.S.P.I.A.C.[am]}$PEPTIDE1,PEPTIDE1,2:R3-8:R3|PEPTIDE1,PEPTIDE1,3:R3-16:R3$$$V2.0)	3 nM	37 nM	–	–
CC[C@H](C)[C@@H]1NC(=O)[C@@H]2CCCN2C(=O)[C@H](CO)NC(=O)[C@H](CCSC)NC(=O)[C@H](C)NC(=O)[C@H](CO)NC(=O)[C@H](C)NC(=O)[C@@H]2CSSC[C@H](NC(=O)CN)C(=O)N[C@@H](CSSC[C@@H](C(N)=O)NC1=O)C(=O)N[C@@H](CO)C(=O)N[C@@H](Cc1c[nH]cn1)C(=O)N1CCC[C@H]1C(=O)N[C@@H](C(C)C)C(=O)N2 [[+9A]TxID] (HELM PEPTIDE1{G.C.C.S.H.P.V.C.A.S.A.M.S.P.I.C.[am]}$PEPTIDE1,PEPTIDE1,2:R3-8:R3|PEPTIDE1,PEPTIDE1,3:R3-16:R3$$$V2.0)	> 10000 nM	> 10000 nM	less than fifty percent	no obvious inhibition
